{"source": "patent US5795907A", "about": "“Gastin and CCK receptor ligands” (James Black Foundation Limited, priority 1994, dated 1998)", "key": {"[1]": {"target": "T1, gastrin (Rattus norvegicus, UniProt P30553)", "T1 construct": "The stomach was lowered into a jacketed organ bath containing 40 ml of buffered solution; from tissue; host or cells: isolated perfused whole stomach of immature rats (ca. 21 days old)", "T1 sequence (P30553 1-452)": "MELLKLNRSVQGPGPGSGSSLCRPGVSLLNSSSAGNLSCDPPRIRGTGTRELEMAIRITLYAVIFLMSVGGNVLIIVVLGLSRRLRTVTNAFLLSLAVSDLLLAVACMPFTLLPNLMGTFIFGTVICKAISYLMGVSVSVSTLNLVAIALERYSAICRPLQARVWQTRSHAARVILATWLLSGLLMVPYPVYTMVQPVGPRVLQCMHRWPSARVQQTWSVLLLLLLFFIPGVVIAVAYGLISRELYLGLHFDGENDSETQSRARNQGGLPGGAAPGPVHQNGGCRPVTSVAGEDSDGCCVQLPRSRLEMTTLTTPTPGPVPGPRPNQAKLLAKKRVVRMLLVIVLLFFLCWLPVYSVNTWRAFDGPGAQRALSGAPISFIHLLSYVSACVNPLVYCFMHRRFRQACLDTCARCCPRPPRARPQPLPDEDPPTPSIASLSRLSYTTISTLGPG", "assay": "gastrin antagonist activity in an immature rat stomach assay (pentagastrin-stimulated acid secretion)", "details": "cumulative pentagastrin dose-response curves after 60 min with drug; for Kb: read-out: Gastrin pKB (converted)", "method": "The compounds of the examples were also tested for gastrin antagonist activity in an immature rat stomach assay. The procedure was as follows:\nThe oesophagus of immature rats (33-50 g, ca. 21 days old) was ligated at the level of the cardiac sphincter and the duodenal sphincter was cannulated. The stomach was excised and flushed with ca. 1 ml of unbuffered physiological saline solution. The fundus was punctured and cannulated. A further 4-5 ml of unbuffered solution was flushed through the stomach to ensure the preparation was not leaking. The stomach was lowered into a jacketed organ bath containing 40 ml of buffered solution containing 3×10^-8 M 5-methylfurmethide, maintained at 37° and gassed vigorously with 95% O2 /5% CO2. The stomach was continuously perfused at a rate of 1 ml min^-1 with unbuffered solution gassed with 100% O2 with the perfusate passing over an internally referenced pH-electrode fixed 12 cm above the stomach.\nAfter 120 min of stabilisation the drugs were added directly to the serosal solution in the organ bath and after a further 60 min cumulative pentagastrin dose-response curves were started. Changes in acid secretion were monitored and the curves analysed according to Black et.al., Br. J. Pharmacol., 1985, 86, 581."}, "[2]": {"target": "T2, CCKB receptor (Mus musculus, UniProt P56481)", "T2 construct": "The cortex was dissected, weighed and homogenised in 40ml ice-cold buffer; tissue Charles River (supplier of the CD1 mice); host or cells: cerebral cortex membranes of male CD1 mice", "T2 sequence (P56481 1-453)": "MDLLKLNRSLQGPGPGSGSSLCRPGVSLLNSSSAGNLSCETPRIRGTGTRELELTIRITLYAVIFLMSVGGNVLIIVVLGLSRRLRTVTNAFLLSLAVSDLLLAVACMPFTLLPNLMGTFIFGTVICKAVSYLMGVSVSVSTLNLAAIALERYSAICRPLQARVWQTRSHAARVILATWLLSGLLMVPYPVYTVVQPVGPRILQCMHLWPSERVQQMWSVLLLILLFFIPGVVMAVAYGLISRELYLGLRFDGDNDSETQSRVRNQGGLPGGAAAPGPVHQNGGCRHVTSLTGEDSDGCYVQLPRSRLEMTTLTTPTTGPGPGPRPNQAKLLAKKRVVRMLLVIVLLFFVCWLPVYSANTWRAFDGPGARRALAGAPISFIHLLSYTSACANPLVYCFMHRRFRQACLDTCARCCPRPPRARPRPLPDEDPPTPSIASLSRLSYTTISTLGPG", "assay": "CCKB receptor radioligand binding assay in mouse cortical membranes ([125I]-CCK8S)", "details": "[125I]-CCK8S 200 pM, 150 min at 21±3°; for Ki: read-out: CCKB pKi (converted)", "how_it_was_run": "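This was competition binding with tracer [125I]-CCK8S (200 pM solution added), run for 150 min at 21±3° on male CD1 mouse cortex membranes in pH 7.2 HEPES buffer with bacitracin. Filtration then gamma counting gave bound radioactivity. L-365,260 set the non-specific level.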"}, "[3]": {"target": "T3, CCKA (Cavia porcellus, UniProt Q63931)", "T3 construct": "The pancreatata were homogenised in 40 ml ice-cold HEPES buffer using a polytron; from tissue; host or cells: pancreas membranes of male Dunkin Hartley guinea-pigs", "T3 sequence (Q63931 1-430)": "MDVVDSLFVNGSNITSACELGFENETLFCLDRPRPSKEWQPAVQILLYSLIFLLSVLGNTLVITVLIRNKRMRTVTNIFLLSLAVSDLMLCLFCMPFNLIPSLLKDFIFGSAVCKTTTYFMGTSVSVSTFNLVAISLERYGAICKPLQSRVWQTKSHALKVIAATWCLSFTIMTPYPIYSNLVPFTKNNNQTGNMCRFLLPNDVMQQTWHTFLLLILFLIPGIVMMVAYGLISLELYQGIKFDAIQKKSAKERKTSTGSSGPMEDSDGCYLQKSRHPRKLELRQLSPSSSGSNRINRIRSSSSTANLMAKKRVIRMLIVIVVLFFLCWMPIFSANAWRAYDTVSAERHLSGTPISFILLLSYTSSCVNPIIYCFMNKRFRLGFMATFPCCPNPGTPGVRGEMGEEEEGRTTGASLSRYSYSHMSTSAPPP", "assay": "CCKA radioligand binding assay in guinea-pig pancreas membranes ([125I]-CCK8(S))", "details": "PD134,308 present, 150 minutes at 21±3°; for Ki: read-out: CCKA pKi (converted)", "how_it_was_run": "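Competition for [125I]-CCK8(S) (added as […] solution) ran for 150 min at 21±3° in HEPES pH 7.2. Membranes came from male guinea-pig pancreas at 1 mg/ml original wet weight, with 0.375 μM PD134,308 in the suspension. Filter-bound counts were gamma-counted; 100 nM L-364,718 (added solution) defined non-specific binding.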"}}}
{"compound": "O=C(O)c1ccc(C(=O)O)c(NC(=O)[C@H](Cc2ccccc2)NC(=O)c2cc3[nH]cnc3cc2C(=O)NCC23CC4CC(CC(C4)C2)C3)c1", "note": "[Example 78, 5-(1S-(2,5-dicarboxyphenylaminocarbonyl)-2-phenylethylaminocarbonyl)-6-(1-adamantanemethylaminocarbonyl)-benzimidazole]", "values": [{"measurement": "Gastrin pKB", "setting": "[1]", "value": 8.6}, {"measurement": "CCKB pKi", "setting": "[2]", "value": 7.3}, {"measurement": "CCKA pKi", "setting": "[3]", "value": 5.3}]}
{"compound": "O=C(O)c1cc(NC(=O)[C@H](Cc2ccccc2F)NC(=O)c2cc3cc[nH]c3cc2C(=O)NCC23CC4CC(CC(C4)C2)C3)cc(C(=O)O)c1", "note": "[Example 87, 5-(1S-(3,5-dicarboxyphenylaminocarbonyl)-2-(2-fluorophenyl)ethylaminocarbonyl)-6-(1-adamantanemethylaminocarbonyl)-indole]", "values": [{"measurement": "Kb", "setting": "[1]", "value": 0.000251, "unit": "µM"}, {"measurement": "Ki", "setting": "[2]", "value": 0.000794, "unit": "µM"}, {"measurement": "Ki", "setting": "[3]", "value": 3.16, "unit": "µM"}]}
{"compound": "O=C(O)c1cc(NC(=O)[C@H](Cc2ccccc2)NC(=O)c2cc3cc[nH]c3cc2C(=O)NCC23CC4CC(CC(C4)C2)C3)cc(C(=O)O)c1", "note": "[Example 24, 5-(1S-(3,5-dicarboxyphenylaminocarbonyl)-2-phenylethylaminocarbonyl)-6-(1-adamantanemethylaminocarbonyl)-indole]", "values": [{"measurement": "Kb", "setting": "[1]", "value": 0.000316, "unit": "µM"}, {"measurement": "Ki", "setting": "[2]", "value": 0.00126, "unit": "µM"}, {"measurement": "Ki", "setting": "[3]", "value": 2, "unit": "µM"}]}
{"compound": "COC(=O)[C@@H](C)NC(=O)c1cc2ccccc2cc1C(=O)NCC12CC3CC(CC(C3)C1)C2", "note": "[Example 8, 2-(1R-methoxycarbonylethylamino-carbonyl)-3-(1-adamantanemethylaminocarbonyl)-naphthalene]", "values": [{"measurement": "Kb", "setting": "[1]", "value": 1.26, "unit": "µM"}, {"measurement": "Ki", "setting": "[2]", "value": 5.01, "unit": "µM"}, {"measurement": "Ki", "setting": "[3]", "value": 1, "unit": "µM"}]}
{"compound": "O=C(O)c1cc(NC(=O)[C@H](Cc2c[nH]cn2)NC(=O)c2cc3[nH]cnc3cc2C(=O)NCC23CC4CC(CC(C4)C2)C3)cc(C(=O)O)c1", "note": "[Example 69, 5-(1S-(3,5-dicarboxyphenylaminocarbonyl)-2-(2,4-imidazolyl)ethylaminocarbonyl)-6-(1-adamantanemethylaminocarbonyl)-benzimidazole]", "values": [{"measurement": "Kb", "setting": "[1]", "value": 0.0794, "unit": "µM"}, {"measurement": "Ki", "setting": "[2]", "value": 0.316, "unit": "µM"}, {"measurement": "Ki", "setting": "[3]", "value": 7.94, "unit": "µM"}]}
{"compound": "CC(C)(C)NS(=O)(=O)c1cc(NC(=O)[C@H](Cc2ccccc2)NC(=O)c2cc3cc[nH]c3cc2C(=O)NCC23CC4CC(CC(C4)C2)C3)cc(S(=O)(=O)NC(C)(C)C)c1", "note": "[Example 95, 5-(1S-(3,5-di-tert-butylaminosulphonylphenylaminocarbonyl)-2-phenylethylaminocarbonyl)-6-(1-adamantanemethylaminocarbonyl)-indole]", "values": [{"measurement": "Gastrin pKB", "setting": "[1]", "value": 5.9}, {"measurement": "CCKB pKi", "setting": "[2]", "value": 5.9}, {"measurement": "CCKA pKi", "setting": "[3]", "value": 5.8}]}
{"compound": "5-(1S-(3-methoxycarbonyl-5-carboxy-phenylaminocarbonyl)-2-phenylethylaminocarbonyl)-6-(1-adamantanemethylaminocarbonyl)-indole and regioisomer with substituents at positions 5 and 6 reversed [Example 40]", "values": [{"measurement": "Gastrin pKB", "setting": "[1]", "value": 7.3}, {"measurement": "CCKB pKi", "setting": "[2]", "value": 6.8}, {"measurement": "CCKA pKi", "setting": "[3]", "value": 6.3}]}
{"compound": "O=C(NCC12CC3CC(CC(C3)C1)C2)c1cc2ccccc2cc1C(=O)N1CCC[C@H]1C(=O)O", "note": "[Example 4, 2-(2S-carboxypyrrolidino-carbonyl)-3-(1-adamantanemethylaminocarbonyl)-naphthalene]", "values": [{"measurement": "Kb", "setting": "[1]", "value": 0.501, "unit": "µM"}, {"measurement": "Ki", "setting": "[2]", "value": 3.16, "unit": "µM"}, {"measurement": "Ki", "setting": "[3]", "value": 3.98, "unit": "µM"}]}
{"compound": "CC(=O)Oc1cc(OC(C)=O)c2cc(C(=O)NCC34CC5CC(CC(C5)C3)C4)c(C(=O)N[C@@H](Cc3ccccc3)C(=O)Nc3cc(C(=O)O)cc(C(=O)O)c3)cc2c1", "note": "[Example 54, 2-(1S-(3,5-dicarboxyphenylaminocarbonyl)-2-phenylethylaminocarbonyl)-3-(1-adamantanemethylaminocarbonyl)-5,7-diacetoxy-naphthalene]", "values": [{"measurement": "Gastrin pKB", "setting": "[1]", "value": 8.1}, {"measurement": "CCKB pKi", "setting": "[2]", "value": 8.1}, {"measurement": "CCKA pKi", "setting": "[3]", "value": 5.9}]}
{"compound": "O=C(O)c1cc(NC(=O)[C@H](Cc2ccccc2Cl)NC(=O)c2cc3[nH]cnc3cc2C(=O)NCC23CC4CC(CC(C4)C2)C3)cc(C(=O)O)c1", "note": "[Example 135, 5-(1S-(3,5-dicarboxyphenylaminocarbonyl)-2-(2-chlorophenyl)ethylaminocarbonyl)-6-(1-adamantanemethylaminocarbonyl)-benzimidazole]", "values": [{"measurement": "Gastrin pKB", "setting": "[1]", "value": 8.9}, {"measurement": "CCKB pKi", "setting": "[2]", "value": 8.3}, {"measurement": "CCKA pKi", "setting": "[3]", "value": 5.1}]}
